We go through five compounds from PMC5974041, “Functional Studies of Sex Pheromone Receptors in Asian Corn Borer Ostrinia furnacalis” (Frontiers in Physiology, 2018).

Holding throughout (assay): two-electrode voltage clamp, Xenopus oocytes
Holding throughout (type): cell-based
Holding throughout (settings): pH 7.6 Ringer's buffer, -80 mV, co-expressed OfurOrco, agonist
A general note: Two-electrode voltage clamp is typically applied to oocytes expressing channels or transporters.

The target of experiment [1] is T1, OfurOR4 (Ostrinia furnacalis, UniProt A0A0E3VLP9).
T1 construct: gene OR4; full-length ORF from male antennal cDNA, untagged, in PT7TS; cRNA co-injected 1:1 with OfurOrco in Xenopus oocytes; naming of Yang et al. 2015 (group OR4 = OnubOR3 of Wanner/Leary); with Odorant receptor co-receptor (Orco)
T1 sequence (A0A0E3VLP9 1-422): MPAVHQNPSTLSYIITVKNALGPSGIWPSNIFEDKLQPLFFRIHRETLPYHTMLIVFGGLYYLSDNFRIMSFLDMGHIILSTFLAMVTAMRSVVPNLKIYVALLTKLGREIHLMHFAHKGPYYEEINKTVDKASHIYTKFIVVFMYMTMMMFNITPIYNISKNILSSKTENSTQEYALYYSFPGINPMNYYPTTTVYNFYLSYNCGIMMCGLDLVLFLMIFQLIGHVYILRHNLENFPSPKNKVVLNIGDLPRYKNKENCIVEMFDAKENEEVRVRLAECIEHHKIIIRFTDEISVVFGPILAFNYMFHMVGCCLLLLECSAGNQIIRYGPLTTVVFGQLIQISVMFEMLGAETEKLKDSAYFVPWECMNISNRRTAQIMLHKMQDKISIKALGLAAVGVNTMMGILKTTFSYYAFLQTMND
T1 sequence (A0A0E4B591 1-474 partner): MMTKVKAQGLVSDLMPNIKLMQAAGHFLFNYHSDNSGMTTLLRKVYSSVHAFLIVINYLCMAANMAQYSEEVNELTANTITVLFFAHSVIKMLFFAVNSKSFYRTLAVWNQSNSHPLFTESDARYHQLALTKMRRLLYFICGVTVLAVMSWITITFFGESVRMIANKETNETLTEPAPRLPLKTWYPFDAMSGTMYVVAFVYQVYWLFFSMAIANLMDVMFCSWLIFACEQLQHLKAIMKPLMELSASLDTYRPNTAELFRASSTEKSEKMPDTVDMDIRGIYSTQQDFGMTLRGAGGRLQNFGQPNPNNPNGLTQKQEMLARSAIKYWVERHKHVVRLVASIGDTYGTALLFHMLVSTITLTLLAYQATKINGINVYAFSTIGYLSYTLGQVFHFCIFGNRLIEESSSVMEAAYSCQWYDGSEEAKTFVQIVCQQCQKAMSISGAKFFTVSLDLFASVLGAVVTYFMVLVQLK

Experiment [2] concerns the target T2, OfurOR5b (Ostrinia furnacalis, UniProt M4NPQ0).
T2 construct: gene OR5b; full-length ORF from male antennal cDNA, untagged, in PT7TS; cRNA co-injected 1:1 with OfurOrco in Xenopus oocytes; with Odorant receptor co-receptor (Orco)
T2 sequence (M4NPQ0 1-424): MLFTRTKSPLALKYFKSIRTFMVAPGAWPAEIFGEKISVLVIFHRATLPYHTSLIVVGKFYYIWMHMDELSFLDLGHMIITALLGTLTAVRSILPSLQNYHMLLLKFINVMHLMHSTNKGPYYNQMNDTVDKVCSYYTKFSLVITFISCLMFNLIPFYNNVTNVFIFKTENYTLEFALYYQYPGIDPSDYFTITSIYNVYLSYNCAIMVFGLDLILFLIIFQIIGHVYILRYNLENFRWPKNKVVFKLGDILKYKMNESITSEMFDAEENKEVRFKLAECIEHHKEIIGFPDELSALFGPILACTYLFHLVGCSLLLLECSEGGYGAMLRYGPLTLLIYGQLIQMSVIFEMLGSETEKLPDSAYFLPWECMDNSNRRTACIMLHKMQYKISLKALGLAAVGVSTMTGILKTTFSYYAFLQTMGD
T2 sequence (A0A0E4B591 1-474 partner): T1 sequence (A0A0E4B591 1-474 partner)

The target of experiment [3] is T3, OfurOR8 (Ostrinia furnacalis, UniProt A0A0E4B5G7).
T3 construct: gene OR8; full-length ORF from male antennal cDNA, untagged, in PT7TS; cRNA co-injected 1:1 with OfurOrco in Xenopus oocytes; naming of Yang et al. 2015; with Odorant receptor co-receptor (Orco)
T3 sequence (A0A0E4B5G7 1-437): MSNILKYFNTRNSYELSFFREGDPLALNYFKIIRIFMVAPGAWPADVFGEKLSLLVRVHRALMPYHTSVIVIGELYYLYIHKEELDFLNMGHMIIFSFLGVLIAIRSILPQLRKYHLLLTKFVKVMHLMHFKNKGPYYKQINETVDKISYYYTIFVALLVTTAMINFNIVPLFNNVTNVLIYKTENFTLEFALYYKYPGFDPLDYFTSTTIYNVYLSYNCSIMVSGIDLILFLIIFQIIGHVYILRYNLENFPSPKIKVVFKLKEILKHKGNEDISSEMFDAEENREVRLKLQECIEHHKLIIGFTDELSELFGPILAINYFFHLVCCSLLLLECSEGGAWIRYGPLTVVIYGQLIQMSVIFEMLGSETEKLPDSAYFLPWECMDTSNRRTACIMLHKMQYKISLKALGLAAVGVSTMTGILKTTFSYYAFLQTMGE
T3 sequence (A0A0E4B591 1-474 partner): T1 sequence (A0A0E4B591 1-474 partner)

The target of experiment [4] is T4, OfurOR7 (Ostrinia furnacalis, UniProt M4NKX7).
T4 construct: gene OR7; full-length ORF from male antennal cDNA, untagged, in PT7TS; cRNA co-injected 1:1 with OfurOrco in Xenopus oocytes; naming of Yang et al. 2015; with Odorant receptor co-receptor (Orco)
T4 sequence (M4NKX7 1-428): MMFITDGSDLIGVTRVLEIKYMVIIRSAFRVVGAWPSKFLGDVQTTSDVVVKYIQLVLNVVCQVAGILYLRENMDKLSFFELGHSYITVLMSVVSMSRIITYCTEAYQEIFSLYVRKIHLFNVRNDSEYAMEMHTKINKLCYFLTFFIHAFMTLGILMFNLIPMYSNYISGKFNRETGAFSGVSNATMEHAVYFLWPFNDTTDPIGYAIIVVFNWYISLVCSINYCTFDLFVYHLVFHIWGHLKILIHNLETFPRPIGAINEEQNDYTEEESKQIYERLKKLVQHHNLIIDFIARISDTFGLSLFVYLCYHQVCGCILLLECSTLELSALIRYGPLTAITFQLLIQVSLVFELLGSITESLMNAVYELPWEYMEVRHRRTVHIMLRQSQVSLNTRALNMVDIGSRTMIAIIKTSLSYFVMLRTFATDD
T4 sequence (A0A0E4B591 1-474 partner): T1 sequence (A0A0E4B591 1-474 partner)

Experiment [5] concerns the target T5, OfurOR6 (Ostrinia furnacalis, UniProt M4NL06).
T5 construct: gene OR6; full-length ORF from male antennal cDNA, untagged, in PT7TS; cRNA co-injected 1:1 with OfurOrco in Xenopus oocytes; naming of Yang et al. 2015; with Odorant receptor co-receptor (Orco)
T5 sequence (M4NL06 1-421): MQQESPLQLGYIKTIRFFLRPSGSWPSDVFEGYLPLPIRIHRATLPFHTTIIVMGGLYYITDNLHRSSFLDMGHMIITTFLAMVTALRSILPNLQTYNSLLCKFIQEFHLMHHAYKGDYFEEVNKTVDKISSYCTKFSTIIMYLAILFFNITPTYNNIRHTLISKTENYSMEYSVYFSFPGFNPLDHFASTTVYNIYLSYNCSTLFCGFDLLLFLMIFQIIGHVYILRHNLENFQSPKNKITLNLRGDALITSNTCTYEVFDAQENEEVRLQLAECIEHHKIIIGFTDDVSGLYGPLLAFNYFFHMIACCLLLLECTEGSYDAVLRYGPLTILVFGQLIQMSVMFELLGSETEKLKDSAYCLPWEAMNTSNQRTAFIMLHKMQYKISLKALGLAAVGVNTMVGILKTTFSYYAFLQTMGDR
T5 sequence (A0A0E4B591 1-474 partner): T1 sequence (A0A0E4B591 1-474 partner)

As for `CC/C=C\CCCCCCCCCCOC(C)=O` [Z11-14:OAc, (Z)-11-tetradecenyl acetate], the “current at 100 μM” value was “inhibited the response of Z9-14:OAc, Z11-14:OAc, and E11-14:OAc” in experiment [1]; “OfurOR5b broadly tuned to Z9-14:OAc, E11-14:OAc, Z11-14:OAc, E12-14:OAc, and Z12-14:OAc” in experiment [2]; 76.8 ± 14.1 nA in experiment [3].

As for `CCCC/C=C\CCCCCCCCOC(C)=O` [Z9-14:OAc, (Z)-9-tetradecenyl acetate], the “current at 100 μM” value in experiment [1] is “inhibited the response of Z9-14:OAc, Z11-14:OAc, and E11-14:OAc”; in experiment [4], 212.2 ± 46.3 nA; in experiment [2], “OfurOR5b broadly tuned to Z9-14:OAc, E11-14:OAc, Z11-14:OAc, E12-14:OAc, and Z12-14:OAc”; in experiment [3], 8.5 ± 5.2 nA.

Take `C/C=C\CCCCCCCCCCCOC(C)=O` [Z12-14:OAc, (Z)-12-tetradecenyl acetate]: the “current at 100 μM” value in experiment [1] was 1876.8 ± 165 nA; in experiment [2], “OfurOR5b broadly tuned to Z9-14:OAc, E11-14:OAc, Z11-14:OAc, E12-14:OAc, and Z12-14:OAc”.

Turning to `CC/C=C/CCCCCCCCCCOC(C)=O` [E11-14:OAc, (E)-11-tetradecenyl acetate], the “current at 100 μM” value is “inhibited the response of Z9-14:OAc, Z11-14:OAc, and E11-14:OAc” in experiment [1]; “OfurOR5b broadly tuned to Z9-14:OAc, E11-14:OAc, Z11-14:OAc, E12-14:OAc, and Z12-14:OAc” in experiment [2]; 144.6 ± 28.3 nA in experiment [3].

For `C/C=C/CCCCCCCCCCCOC(C)=O` [E12-14:OAc, E-12-tetradecenyl acetate], the “current at 100 μM” value in experiment [1] (standard order of application (response depends on order)) was 727.9 ± 120.4 nA; in experiment [5], 140.7 ± 6.0 nA; in experiment [2] it was “OfurOR5b broadly tuned to Z9-14:OAc, E11-14:OAc, Z11-14:OAc, E12-14:OAc, and Z12-14:OAc”.
